According to patent US8685928B2, “Antagonists of MUC1” (Dana-Farber Cancer Institute, Inc., priority 2010, dated 2014):
pIC50: −log10 of the molar value. Entries after “also recorded” stand apart in the source; their conditions may differ. Positions of bridges follow the written chain, without caps; N, C: chain ends. Non-standard residues stand in square brackets, D forms with d. Residues, ends and D or L forms follow the SMILES beside them.

How the values were obtained:
[1] = tested on: human carcinoma cell lines
Experimental: A series of in vitro and in vivo primary pharmacodynamic studies was conducted to assess efficacy and mechanism of action of GO-203-2c in human tumor cells.
GO-203-2 and GO-203-2c were evaluated for ability to inhibit proliferation of murine and human carcinoma cell lines in vitro. Test compound (5 μM final concentration) was added to tumor cell cultures daily for 5 to 6 days, and cell viability was determined by trypan blue dye exclusion.

[2] = Hygroscopicity; format: physicochemical; settings: drug substance powder
Description: There is no evidence to support an isolable hydrate. GO-203-2c HCl is hygroscopic, and precautions must be taken to avoid moisture uptake while handling the drug substance powder.

[3] = tested on: MiaPaCa pancreatic carcinoma xenograft; assay: MiaPaCa human pancreatic carcinoma xenograft model, GO-203-2c IV; format: in vivo, mouse
Experimental: Male BALB/c nu/nu mice (8 weeks old; Charles River Laboratories, Wilmington, Mass.) were injected with 2.5 million MiaPaCa cells in the right thigh. When tumors reached a predetermined size (approximately 100 mm^3; 34 days after tumor cell implantation), mice (8 per group) were administered normal saline (control) or GO-203-2c (10 mg/kg) IV daily for 21 consecutive days. At the end of the treatment period, and following a one week interim period, animals that received GO-203-2c initially were administered an additional series of GO-203-2c daily injections.

[4] = tested on: A549 non-small cell lung carcinoma xenograft; assay: A549 non-small cell lung carcinoma xenograft model; format: in vivo, mouse; settings: for Tumor response: 7.5 mg/kg
Experimental: (§1) Male BALB/c nu/nu mice (6-7 weeks old; Charles River Laboratories, Wilmington, Mass.) were injected with 5 million A549 or PC3 cells in the right thigh. When tumors reached a predetermined size (approximately 80-100 mm^3; 10-16 days after tumor cell implantation), treatment was initiated as follows: Group 1, saline control (daily×21 days); Group 2, GO-203-2c (7.5 mg/kg, 5 days on/2 days off×3 cycles); Group 3, GO-203-2c (7.5 mg/kg, daily×21 days). In the A549 study, Group 3 animals that still had palpable/measurable tumors at the end of the 21-day treatment period were administered an additional 9 days of GO-203-2c treatment (Group 3′), with a one week interim period between treatments.

[5] = Pivotal repeat-dose rat toxicity study; format: in vivo; settings: for Safety margin: human starting dose lower than NOAEL: 3 mg/m^2 human starting dose
Experimental: The proposed clinical trial will be a multicenter, open-label, dose-escalation, safety, pharmacodynamic and pharmacokinetic study in patients with advanced solid tumors administered GO-203-2c IV over 60 min once per day for 21 consecutive days; this dosing regimen will be repeated every 28 days. Since the majority of the treatment-related findings in rats and dogs were localized at the infusion site or were secondary to the infusion site reactions, the no-observed-adverse-effect-level (NOAEL) for systemic toxicity in the pivotal repeat-dose rat toxicity study was determined to be 5 mg/kg/day. The highest non-severely toxic dose (HNSTD), which was also considered the NOAEL, was established as 1 mg/kg/day in the dog pivotal repeat-dose toxicity study. For vascular injury at the injection site, the NOAEL in rats is […]. This concentration rate is 25-fold greater than the estimated concentration rate for humans (0.83 μg/mL/min) at the recommended starting dose of 3 mg/m2/day (assumes a body mass of 1.65 m2).

[6] = target: nicotinic acetylcholine α1 (bungarotoxin) receptor (Homo sapiens, UniProt P02708+P07510+Q07001); assay: biochemical
nicotinic acetylcholine α1 (bungarotoxin) receptor, sequence (P07510 23-517): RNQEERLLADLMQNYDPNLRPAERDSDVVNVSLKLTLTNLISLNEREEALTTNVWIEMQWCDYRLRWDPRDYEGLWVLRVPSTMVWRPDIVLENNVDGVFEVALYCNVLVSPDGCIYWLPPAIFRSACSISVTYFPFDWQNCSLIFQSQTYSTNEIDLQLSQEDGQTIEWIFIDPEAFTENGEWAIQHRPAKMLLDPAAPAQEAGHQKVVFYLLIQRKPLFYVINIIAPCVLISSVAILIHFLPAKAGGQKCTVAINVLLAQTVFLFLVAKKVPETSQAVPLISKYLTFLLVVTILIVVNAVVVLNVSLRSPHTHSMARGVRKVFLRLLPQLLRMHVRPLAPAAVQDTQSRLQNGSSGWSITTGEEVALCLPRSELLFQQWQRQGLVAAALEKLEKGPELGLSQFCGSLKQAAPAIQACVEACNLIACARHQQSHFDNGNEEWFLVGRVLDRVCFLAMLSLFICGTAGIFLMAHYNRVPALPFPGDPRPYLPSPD
nicotinic acetylcholine α1 (bungarotoxin) receptor, sequence (P02708 21-457): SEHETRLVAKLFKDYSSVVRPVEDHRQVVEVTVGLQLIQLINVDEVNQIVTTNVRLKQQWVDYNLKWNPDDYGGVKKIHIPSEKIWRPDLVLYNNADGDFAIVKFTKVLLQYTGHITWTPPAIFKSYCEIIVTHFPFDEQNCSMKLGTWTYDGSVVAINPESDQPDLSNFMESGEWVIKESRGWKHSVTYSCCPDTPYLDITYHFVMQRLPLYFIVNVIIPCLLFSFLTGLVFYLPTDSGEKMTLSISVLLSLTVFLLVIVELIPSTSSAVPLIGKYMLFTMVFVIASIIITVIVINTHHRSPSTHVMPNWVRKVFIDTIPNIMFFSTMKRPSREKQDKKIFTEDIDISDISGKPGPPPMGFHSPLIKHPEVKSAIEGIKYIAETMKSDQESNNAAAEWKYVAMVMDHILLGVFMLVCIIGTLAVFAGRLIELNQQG
nicotinic acetylcholine α1 (bungarotoxin) receptor, sequence (Q07001 22-517): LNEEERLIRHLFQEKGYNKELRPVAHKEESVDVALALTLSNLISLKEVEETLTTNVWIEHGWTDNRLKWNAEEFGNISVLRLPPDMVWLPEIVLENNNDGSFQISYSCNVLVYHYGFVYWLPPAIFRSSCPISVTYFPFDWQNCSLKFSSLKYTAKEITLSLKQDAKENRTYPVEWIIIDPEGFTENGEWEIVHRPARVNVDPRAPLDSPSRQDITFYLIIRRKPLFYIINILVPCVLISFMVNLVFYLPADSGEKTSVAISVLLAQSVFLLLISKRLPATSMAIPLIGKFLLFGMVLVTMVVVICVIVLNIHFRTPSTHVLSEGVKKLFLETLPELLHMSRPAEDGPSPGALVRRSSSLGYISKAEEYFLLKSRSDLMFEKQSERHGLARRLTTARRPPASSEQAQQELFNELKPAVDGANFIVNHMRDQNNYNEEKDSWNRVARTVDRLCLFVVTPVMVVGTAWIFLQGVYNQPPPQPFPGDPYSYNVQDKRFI
nicotinic acetylcholine α1 (bungarotoxin) receptor, sequence (P11230 24-501, further chain): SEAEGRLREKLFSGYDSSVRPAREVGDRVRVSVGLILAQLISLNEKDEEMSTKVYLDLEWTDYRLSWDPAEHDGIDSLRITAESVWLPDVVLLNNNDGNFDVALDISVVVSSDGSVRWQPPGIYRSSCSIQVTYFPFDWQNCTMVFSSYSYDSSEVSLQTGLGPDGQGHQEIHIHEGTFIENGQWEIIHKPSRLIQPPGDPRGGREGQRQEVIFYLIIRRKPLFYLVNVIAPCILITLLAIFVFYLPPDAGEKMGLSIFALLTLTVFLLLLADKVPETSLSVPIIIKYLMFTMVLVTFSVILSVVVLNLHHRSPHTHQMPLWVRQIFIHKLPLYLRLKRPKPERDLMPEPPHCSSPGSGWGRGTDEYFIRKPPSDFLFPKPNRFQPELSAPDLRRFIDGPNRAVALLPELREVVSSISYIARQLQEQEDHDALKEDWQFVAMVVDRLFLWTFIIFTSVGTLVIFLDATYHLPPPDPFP

[7] = tested on: H1975 Lung cancer cells; assay: Inhibition of cell proliferation, trypan blue exclusion (Table 2); format: cell-based, human; settings: 5 μM peptide every day, 6-day treatment
Experimental: Cells (ZR-75-1 breast carcinoma or H-1975 non-small cell lung carcinoma) were plated separately in 24-well plates for 24 hours prior to treatment with different peptides. The cells were then treated with 5 μM (final concentration) of different peptides every day for 4-6 days. On the day of termination, cells were washed two times with PBS and trypsinized with 0.3 ml of Trypsin/EDTA. Cell growth media was used to stop the trypsin reaction. Following washing, the cells were centrifuged and the cell pellets were re-suspended in PBS for counting in hemacytometer.
The trypan blue dye exclusion method was used to determine the number of viable cells present in a cell suspension. Cell suspension was mixed as 1:1 with the trypan blue dye and then visually examined in a hemacytometer. A viable cell will have a clear cytoplasm whereas a non-viable/dead cell will be stained with trypan blue dye. By doing this trypan blue exclusion method, viable cell numbers were counted and percent inhibition of proliferation was then calculated comparing with untreated controls.

[8] = target: dopamine D1 receptor (Homo sapiens, UniProt P21728); assay: biochemical
dopamine D1 receptor, sequence (P21728 whole entry, species assumed): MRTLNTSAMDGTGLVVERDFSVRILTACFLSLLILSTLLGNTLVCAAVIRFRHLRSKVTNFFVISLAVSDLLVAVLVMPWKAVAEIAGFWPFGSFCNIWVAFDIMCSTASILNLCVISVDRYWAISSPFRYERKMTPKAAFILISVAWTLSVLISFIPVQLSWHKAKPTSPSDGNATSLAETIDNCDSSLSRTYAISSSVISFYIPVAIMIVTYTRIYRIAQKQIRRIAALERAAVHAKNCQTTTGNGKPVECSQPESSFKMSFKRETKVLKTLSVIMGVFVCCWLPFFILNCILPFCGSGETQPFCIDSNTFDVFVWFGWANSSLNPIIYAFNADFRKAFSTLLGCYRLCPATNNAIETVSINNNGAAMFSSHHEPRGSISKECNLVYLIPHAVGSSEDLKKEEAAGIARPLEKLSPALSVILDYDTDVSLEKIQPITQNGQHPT

[9] = tested on: PC3 prostate carcinoma xenograft; assay: PC3 human prostate carcinoma xenograft model; format: in vivo, mouse; settings: 7.5 mg/kg
Experimental: as §1

[10] = target: T1, MUC1-CD (Homo sapiens, UniProt P15941); assay: MUC1-CD oligomerization in HEK 293T cells transfected with GFP- and Flag-tag MUC1-CD; format: cell-based; settings: HEK 293T cells transfected with human MUC1-CD
T1 construct: Mucin 1 (MUC1) oncoprotein cytoplasmic domain (MUC1-CD); expressed in transfected cells; host or cells: HEK 293T
T1 sequence (P15941 1182-1255 limits assumed): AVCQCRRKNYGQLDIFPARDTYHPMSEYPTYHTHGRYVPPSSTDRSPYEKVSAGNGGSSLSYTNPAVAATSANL
Description: This finding is not surprising based on a requirement for the cysteine residues in the GO-203-2 binding domain (CQCRRKN) to be available for binding with cysteine residues on the corresponding binding domain of the MUC1-CD protein.

[11] = tested on: ZR-75-1 human breast carcinoma xenograft; assay: ZR-75-1 xenograft model, 5 days on/2 days off IV dosing schedule; format: in vivo, mouse; settings: for Mice completely cured / Tumor response: 7.5 mg/kg IV
Experimental: In a second study using this ZR-75-1 cell xenograft model, a 5 days on/2 days off IV dosing schedule was used, and groups of 8 mice received either one, two or three cycles utilizing this schedule. […] Tumor growth was cytostatic for 4-5 days after stopping the drug treatment, but tumors subsequently started re-growing similarly to control. […] Tumors in the remaining 5 of 8 mice in this group started re-growing at 8+ days after cessation of treatment. These animals were administered an additional 2 cycles of treatment, starting on Day 29.

[12] = target: adrenergic α1A receptor (Homo sapiens, UniProt P35348); assay: biochemical
adrenergic α1A receptor, sequence (P35348 whole entry): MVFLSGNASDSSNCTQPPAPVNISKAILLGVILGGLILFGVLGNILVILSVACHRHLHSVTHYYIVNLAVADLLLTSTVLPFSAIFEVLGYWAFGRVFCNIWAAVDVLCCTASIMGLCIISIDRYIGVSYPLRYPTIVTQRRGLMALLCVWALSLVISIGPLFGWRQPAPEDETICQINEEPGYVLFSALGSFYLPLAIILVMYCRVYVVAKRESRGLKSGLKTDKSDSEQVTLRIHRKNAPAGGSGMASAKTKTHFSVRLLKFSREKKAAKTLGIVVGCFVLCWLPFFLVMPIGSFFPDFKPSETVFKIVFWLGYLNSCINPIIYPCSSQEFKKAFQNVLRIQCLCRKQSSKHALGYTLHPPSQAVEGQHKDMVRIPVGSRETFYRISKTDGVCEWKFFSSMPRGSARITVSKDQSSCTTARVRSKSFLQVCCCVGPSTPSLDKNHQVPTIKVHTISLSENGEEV

[13] = 10 mg/kg IV daily for 21 consecutive days
[14] = 5 days on/2 days off x 3 cycles

**Q.** Which “50% inhibition (IC50) of proliferation” value [1] does the source give for CC(=O)N[C@H](CCCNC(=N)N)C(=O)N[C@H](CCCNC(=N)N)C(=O)N[C@H](CCCNC(=N)N)C(=O)N[C@H](CCCNC(=N)N)C(=O)N[C@H](CCCNC(=N)N)C(=O)N[C@H](CCCNC(=N)N)C(=O)N[C@H](CCCNC(=N)N)C(=O)N[C@H](CCCNC(=N)N)C(=O)N[C@H](CCCNC(=N)N)C(=O)N[C@@H]1CSSC[C@H](C(=O)N[C@H](CCCNC(=N)N)C(=O)N[C@H](CCCNC(=N)N)C(=O)N[C@H](CCCCN)C(=O)N[C@H](CC(N)=O)C(N)=O)NC(=O)[C@@H](CCC(N)=O)NC1=O [GO-203-2c, Ac-(D)Arg-(D)Arg-(D)Arg-(D)Arg-(D)Arg-(D)Arg-(D)Arg-(D)Arg-(D)Arg-(D)Cys-(D)Gln-(D)Cys-(D)Arg-(D)Arg-(D)Lys-(D)Asn-NH2 disulfide] (Ac-[dR][dR][dR][dR][dR][dR][dR][dR][dR][dC][dQ][dC][dR][dR][dK][dN]-NH2; disulfide 10-12) here?
**A.** 5 to 11 µg/mL

**Q.** What about the pIC50 [1] of the same compound?
**A.** 5.30 to 5.70

**Q.** And the Hygroscopicity [2]?
**A.** hygroscopic

**Q.** What about the Mice tumor-free [3, 13] of the same compound?
**A.** 2 of 8 and Two out of 8

**Q.** What about the Tumor response [3, 13] of the same compound?
**A.** significant arrest of tumor growth; also recorded: tumor growth delay

**Q.** And the “Tumor response after re-dosing” value ([3]; another cycle of daily IV 10 mg/kg from day 29)?
**A.** somewhat stabilized, with a very slow growth

**Q.** What about the “Average tumor size on day 29” value ([3]; six remaining mice after 7-day rest period, at start of re-dosing) of the same compound?
**A.** ~400 mm^3

**Q.** What about the Tumor response [4, 14] of the same compound?
**A.** tumor growth arrest during the treatment period, but the tumors resumed growth; also recorded: started growing steadily after day 9

**Q.** What about the Tumor response ([4]; daily x 21 days) of the same compound?
**A.** slowed down tumor growth substantially

**Q.** What about the “Tumor response after re-dosing” value ([4]; additional 9 days of treatment from day 29) of the same compound?
**A.** somewhat stabilized with a very slow growth

**Q.** What about the “Average tumor size on day 29” value ([4]; daily x 21 days group after 7 days of rest, at start of re-dosing) of the same compound?
**A.** ~900 mm^3

**Q.** And the “Rat injection-site NOAEL concentration rate relative to estimated human concentration rate (0.83 μg/mL/min)” value ([5]; human starting dose of 3 mg/m2/day)?
**A.** 25 fold

**Q.** What about the NOAEL ([5]; in vivo, rat, repeat-dose IV, read-out: NOAEL for systemic toxicity) of the same compound?
**A.** 5 mg/kg/day

**Q.** What about the “NOAEL (systemic)” value ([5]; rat, body surface area basis) of the same compound?
**A.** 30 mg/m2/day

**Q.** What about the “Safety margin: human starting dose lower than NOAEL” value ([5]; rat, mg/kg basis) of the same compound?
**A.** 62 fold

**Q.** What about the “Safety margin: human starting dose lower than NOAEL” value ([5]; rat, mg/m^2 basis) of the same compound?
**A.** 10 fold

**Q.** What about the “NOAEL for vascular injury at the injection site (concentration rate)” value ([5]; rats) of the same compound?
**A.** 20.8 µg/mL/min

**Q.** And the pIC50 [6]?
**A.** 5.10 to 5.52

**Q.** What about the “Avg (viable cell number of Groups 1-3)” value [7] of the same compound?
**A.** 7.2

**Q.** What about the “% inhibition” value ([7]; vs untreated control) of the same compound?
**A.** 60.7%

**Q.** And the “Group-1 (viable cell number, individual well)” value ([7]; well having 10,000 cells)?
**A.** 8.47

**Q.** And the “Group-2 (viable cell number, individual well)” value ([7]; well having 10,000 cells)?
**A.** 7.13

**Q.** What about the “Group-3 (viable cell number, individual well)” value ([7]; well having 10,000 cells) of the same compound?
**A.** 6.02

**Q.** And the pIC50 [8]?
**A.** 4.98

**Q.** What about the Tumor response [9, 14] of the same compound?
**A.** complete growth arrest and regression; also recorded: tumor growth was immediately arrested and tumors regressed

**Q.** And the Tumor response ([9]; daily x 21 days)?
**A.** complete growth arrest and regression; also recorded: tumor growth was immediately arrested and tumors regressed

**Q.** What about the “Inhibition of MUC1-CD oligomerization” value [10] of the same compound?
**A.** inhibition

**Q.** What about the Mice completely cured ([11]; 2 dosing cycles) of the same compound?
**A.** Two of 8

**Q.** And the Tumor response ([11]; 2 dosing cycles (5 days on/2 days off))?
**A.** Tumor regression

**Q.** What about the Mice completely cured ([11]; 3 dosing cycles) of the same compound?
**A.** Three of 8

**Q.** What about the Tumor response ([11]; 3 dosing cycles (5 days on/2 days off)) of the same compound?
**A.** tumor growth arrest during the treatment period, but the tumors resumed growth; also recorded: substantial regression of tumors

**Q.** And the Tumor response ([11]; one dosing cycle (5 days on/2 days off))?
**A.** partial tumor regression

**Q.** What about the “Tumor response after re-dosing” value ([11]; additional 2 cycles from Day 29 in 5 mice with re-growing tumors) of the same compound?
**A.** somewhat stabilized with very slow growth

**Q.** What about the pIC50 [12] of the same compound?
**A.** 5.10 to 5.52
